Test results reported in US20250034216A1, “STEREOSELECTIVE COVALENT LIGANDS FOR ONCOGENIC AND IMMUNOLOGICAL PROTEINS” (The Scripps Research Institute, priority 2021, published 2025).

What was measured:
Experiment in all cases: IA-DTB cysteine engagement
Type in all cases: binding
[1] = target: T1, SUPT3H_C268 (Homo sapiens, UniProt O75486); conditions: 22Rv1 cells, 20 μM probe, 1 h, relative to DMSO
T1 construct: endogenous in cells; host or cells: 22Rv1
T1 sequence (O75486 1-317): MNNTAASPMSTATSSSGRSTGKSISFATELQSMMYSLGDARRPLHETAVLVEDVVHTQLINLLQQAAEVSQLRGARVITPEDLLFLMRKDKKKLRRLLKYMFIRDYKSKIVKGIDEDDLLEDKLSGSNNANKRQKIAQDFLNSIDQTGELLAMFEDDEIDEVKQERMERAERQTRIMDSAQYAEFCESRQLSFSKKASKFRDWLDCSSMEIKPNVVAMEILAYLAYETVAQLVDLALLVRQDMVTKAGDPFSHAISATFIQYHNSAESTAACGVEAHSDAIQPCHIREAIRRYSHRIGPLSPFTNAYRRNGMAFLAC
How it was run: (§1)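 Competitive chemoproteomics: residual cysteine reactivity toward IA-DTB in lysates from probe-treated cells was quantified by TMT reporter ions relative to DMSO-treated controls. Replicates sharing cell line, probe, concentration and duration were averaged.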

[2] = target: T2, HIRA_C673 (Homo sapiens, UniProt P54198); conditions: 22Rv1 cells, 20 μM probe, 1 h, relative to DMSO
T2 construct: endogenous in cells; host or cells: 22Rv1
How it was run: as §1

[3] = target: T3, LMF2_C659 (Homo sapiens, UniProt Q9BU23); conditions: 22Rv1 cells, 20 μM probe, 1 h, relative to DMSO
T3 construct: endogenous in cells; host or cells: 22Rv1
T3 sequence (Q9BU23 1-707): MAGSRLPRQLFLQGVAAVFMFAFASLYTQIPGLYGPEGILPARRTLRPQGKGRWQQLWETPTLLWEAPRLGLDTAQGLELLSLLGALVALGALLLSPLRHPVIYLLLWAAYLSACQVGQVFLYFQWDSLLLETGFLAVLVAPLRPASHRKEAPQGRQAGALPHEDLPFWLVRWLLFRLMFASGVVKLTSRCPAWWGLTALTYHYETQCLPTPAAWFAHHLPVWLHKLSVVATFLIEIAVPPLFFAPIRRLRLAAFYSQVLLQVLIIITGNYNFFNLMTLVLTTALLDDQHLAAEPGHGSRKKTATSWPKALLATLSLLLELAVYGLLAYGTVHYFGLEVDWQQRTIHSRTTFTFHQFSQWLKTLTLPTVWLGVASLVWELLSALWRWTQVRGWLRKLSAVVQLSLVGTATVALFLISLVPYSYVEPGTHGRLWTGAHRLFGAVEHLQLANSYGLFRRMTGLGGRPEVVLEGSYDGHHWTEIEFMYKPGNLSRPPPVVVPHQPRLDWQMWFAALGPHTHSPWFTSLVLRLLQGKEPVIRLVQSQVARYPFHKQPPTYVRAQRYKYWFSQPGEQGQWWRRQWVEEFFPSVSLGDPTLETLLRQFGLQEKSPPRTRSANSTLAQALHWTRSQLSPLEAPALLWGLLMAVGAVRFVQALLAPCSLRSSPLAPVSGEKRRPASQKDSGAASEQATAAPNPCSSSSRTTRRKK
How it was run: as §1

[4] = target: T4, RAB40B_C77 (Homo sapiens, UniProt Q12829); conditions: 22Rv1 cells, 20 μM probe, 1 h, relative to DMSO
T4 construct: endogenous in cells; host or cells: 22Rv1
T4 sequence (Q12829 1-278): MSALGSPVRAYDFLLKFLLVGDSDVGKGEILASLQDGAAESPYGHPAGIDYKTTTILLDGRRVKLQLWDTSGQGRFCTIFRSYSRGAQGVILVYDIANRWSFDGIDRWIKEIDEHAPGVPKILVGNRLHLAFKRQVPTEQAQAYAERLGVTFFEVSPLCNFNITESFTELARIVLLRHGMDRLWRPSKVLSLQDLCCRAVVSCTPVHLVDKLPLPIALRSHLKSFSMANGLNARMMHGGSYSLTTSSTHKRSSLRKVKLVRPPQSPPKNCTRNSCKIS
How it was run: as §1

[5] = target: T5, PTGR1_C239 (Homo sapiens, UniProt Q14914); conditions: 22Rv1 cells, relative to DMSO; for % engagement PTGR1_C239: 20 μM probe, 1 h; for % engagement PTGR1_239: 5 μM probe, 1 h (FIG. 5B)
T5 construct: endogenous in cells; host or cells: 22Rv1
How it was run: as §1

T2 sequence (P54198 whole entry): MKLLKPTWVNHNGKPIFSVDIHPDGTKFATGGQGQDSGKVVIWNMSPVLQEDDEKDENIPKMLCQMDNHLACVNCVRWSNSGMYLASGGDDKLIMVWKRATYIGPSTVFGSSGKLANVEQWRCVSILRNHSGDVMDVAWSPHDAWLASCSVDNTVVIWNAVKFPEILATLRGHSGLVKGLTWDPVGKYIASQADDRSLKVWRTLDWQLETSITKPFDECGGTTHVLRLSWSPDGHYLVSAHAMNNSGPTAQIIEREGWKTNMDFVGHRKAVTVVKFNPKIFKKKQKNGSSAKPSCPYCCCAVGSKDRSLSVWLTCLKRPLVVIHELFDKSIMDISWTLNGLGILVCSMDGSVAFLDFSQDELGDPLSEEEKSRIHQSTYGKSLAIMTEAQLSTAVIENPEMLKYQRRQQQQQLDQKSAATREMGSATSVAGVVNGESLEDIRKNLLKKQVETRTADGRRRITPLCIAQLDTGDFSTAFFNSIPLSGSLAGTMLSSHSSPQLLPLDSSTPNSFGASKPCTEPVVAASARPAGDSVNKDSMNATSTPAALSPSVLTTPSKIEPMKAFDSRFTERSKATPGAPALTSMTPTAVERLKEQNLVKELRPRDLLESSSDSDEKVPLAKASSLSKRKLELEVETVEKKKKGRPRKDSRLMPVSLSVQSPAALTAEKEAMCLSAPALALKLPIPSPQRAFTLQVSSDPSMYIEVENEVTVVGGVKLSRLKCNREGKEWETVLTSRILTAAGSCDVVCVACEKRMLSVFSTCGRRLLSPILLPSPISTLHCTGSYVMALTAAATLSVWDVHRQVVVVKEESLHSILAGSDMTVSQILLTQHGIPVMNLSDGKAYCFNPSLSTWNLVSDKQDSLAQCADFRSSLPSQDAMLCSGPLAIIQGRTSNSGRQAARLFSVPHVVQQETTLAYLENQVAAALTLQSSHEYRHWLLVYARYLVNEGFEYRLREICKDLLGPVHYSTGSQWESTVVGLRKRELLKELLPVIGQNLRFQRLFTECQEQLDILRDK
T5 sequence (Q14914 whole entry): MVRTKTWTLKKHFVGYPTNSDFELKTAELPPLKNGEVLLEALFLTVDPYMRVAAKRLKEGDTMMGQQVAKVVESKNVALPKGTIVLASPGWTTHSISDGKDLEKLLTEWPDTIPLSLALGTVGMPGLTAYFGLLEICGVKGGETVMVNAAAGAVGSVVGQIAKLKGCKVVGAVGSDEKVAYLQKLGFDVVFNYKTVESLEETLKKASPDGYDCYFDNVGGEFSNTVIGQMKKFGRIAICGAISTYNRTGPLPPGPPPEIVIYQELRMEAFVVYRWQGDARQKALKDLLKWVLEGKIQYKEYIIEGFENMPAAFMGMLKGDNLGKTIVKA

Structure (SMILES)	% engagement SUPT3H_C268 [1] [%]	% engagement HIRA_C673 [2] [%]	% engagement LMF2_C659 [3] [%]	% engagement RAB40B_C77 [4] [%]	% engagement PTGR1_C239 [5] [%]	% engagement PTGR1_239 [5] [%]
C=CC(=O)N1C[C@H](c2ccc(Br)cc2)[C@@H]1C(=O)Nc1cccc2cccnc12 [MY-1B, (2R,3S)-1-acryloyl-3-(4-bromophenyl)-N-(quinolin-8-yl)azetidine-2-carboxamide]	34.5	3	65.75	100	79	81.33
C=CC(=O)N1C[C@H](c2ccc(Br)cc2)[C@H]1C(=O)Nc1cccc2cccnc12 [MY-3A, (2S,3S)-1-acryloyl-3-(4-bromophenyl)-N-(quinolin-8-yl)azetidine-2-carboxamide]	62.5	11.5	44.75	−39	−4	–
C=CC(=O)N1C[C@@H](c2ccc(Br)cc2)[C@H]1C(=O)Nc1cccc2cccnc12 [MY-1A, (2S,3R)-1-acryloyl-3-(4-bromophenyl)-N-(quinolin-8-yl)azetidine-2-carboxamide]	27	−12	66	100	75	–

Other lines, results leading:

% engagement SUPT3H_C268 [1] [%]	% engagement HIRA_C673 [2] [%]	% engagement LMF2_C659 [3] [%]	% engagement RAB40B_C77 [4] [%]	% engagement PTGR1_C239 [5] [%]	% engagement PTGR1_239 [5] [%]	Structure (SMILES)
70.5	73	69.25	12.5	−16.5	–	C=CC(=O)N1C[C@H](c2ccc(Br)cc2)[C@H]1C(=O)Nc1cccc2cccnc12 [MY-3B, (2S,3S)-1-acryloyl-3-(4-bromophenyl)-N-(quinolin-8-yl)azetidine-2-carboxamide]
–	–	–	–	–	−4.50	CC#CC(=O)N1C[C@H](c2ccc(Br)cc2)[C@@H]1C(=O)Nc1cccc2cccnc12 [MY-45B, (2R,3S)-3-(4-bromophenyl)-1-(but-2-ynoyl)-N-(quinolin-8-yl)azetidine-2-carboxamide]
